For this experiment, the target named is T1, autophosphorylated FLT3 kinase domain (FLT3KD) (Homo sapiens, UniProt P36888).
T1 construct: purified and autophosphorylated FLT3 kinase domain (FLT3KD); 6xHis (C); made in house; host or cells: baculovirus, SF9 / SF21 insect cells
T1 sequence (P36888 610-943 limits assumed): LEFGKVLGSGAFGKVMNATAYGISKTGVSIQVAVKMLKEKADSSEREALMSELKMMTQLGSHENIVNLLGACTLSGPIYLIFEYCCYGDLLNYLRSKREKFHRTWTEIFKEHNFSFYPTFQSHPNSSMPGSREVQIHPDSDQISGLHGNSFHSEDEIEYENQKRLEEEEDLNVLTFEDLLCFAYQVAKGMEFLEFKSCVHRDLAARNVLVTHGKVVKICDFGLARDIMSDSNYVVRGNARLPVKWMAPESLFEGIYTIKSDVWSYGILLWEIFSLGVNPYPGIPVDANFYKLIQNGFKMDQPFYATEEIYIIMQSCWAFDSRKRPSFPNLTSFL
In words: FLT3 kinase assay (PK/LDH coupled, NADH loss at 340 nm). The format is biochemical. The note with it: 250 μM ATP. An excerpt: Although this example presents the use of the FLT3 kinase domain, the kinase assays may use various forms of FLT3, including, for example, the entire molecule, the kinase domain, or a portion thereof.
Materials : Substrate peptide=Poly (Glu, Tyr) 4:1=poly EY (Sigma P-0275); βNADH (Sigma CAT#N-8129, FW=709.4); 2M MgCl2; 1M HEPES buffer, pH 7.5; Phosphoenolpyruvate=PEP (Sigma CAT#P-7002, FW=234); Lactate dehydrogenase=LDH (Worthington Biochemical CAT#2756); Pyruvate Kinase=PK (Sigma CAT#P-9136); ATP (Sigma CAT#A-3377, FW=551); Greiner 384-well UV star plate; and purified and autophosphorylated FLT3 kinase domain (FLT3KD).
Stock Solutions: 10 mM NADH (7.09 mg/mL in miliQH2O) make fresh daily; 1 mg/mL Poly EY (in miliQH2O) store at −20° C.; 200mM HEPES buffer, pH 7.5 (10 ml 1M stock+40 ml miliQH2O) supplemented with 1 mM DTT; 100 mM MgCl2 (5 mL+95 ml dH2)); 100 mM PEP (23.4 mg/mL in dH2O) store at −20° C.; 10 mM ATP (5.51 mg/mL in dH2O) store at −20° C. (dilute 1 mL into total of 10 mL miliQH2O daily=1 mM ATP working stock); 1000 U/mL PK (U/mg varies with lot) flash-freeze under liquid N2 and store at −80° C.; 1000 U/mL LDH (U/mg varies with lot) flash-freeze under liquid N2 and store at −80° C.
Standard Assay Setup for 384-well format (50 μl reaction): 300 μM NADH; 10 mM MgCl2; 2 mM PEP; 45 U/mL PK; 60 U/mL LDH; 1 mg/mL Poly EY; 2.5 μL test compound (in DMSO); 10 μg/mL autophosphorylated FLT3 kinase domain; 250 μM ATP*; 100 mM HEPES buffer; QS with miliQ dH2O to 50 μL. Positive controls contained DMSO with no test compound. Negative controls contained 5 μl of 0.5M EDTA (50 mM in the assay). The kinase reaction was initiated at time t=0 by the addition of ATP.
The unphosphorylated FLT3KD that was produced required pre-incubation with MgATP to allow for autophosphorylation and full kinase activity. The autophosphorylation reaction was run in 100 mM HEPES buffer, 1 mM DTT, and 1 mg/mL FLT3KD by the addition of ATP and MgCl2 to a final concentration of 2 mM and 10 mM respectively. The reaction was allowed to proceed at room temperature for 90 minutes, and then was quenched by the addition of EDTA to 50 mM. The autophosphorylated protein was then aliquotted and flash frozen in liquid N2 for use.
The activity was measured by following the time-dependent loss of NADH by absorbance spectroscopy at 340 nm. The linear portion of the resulting progress curve was then be analyzed by linear regression to get the activity in absorbance units/time, reported as the slope of that best fit line (moles/unit time can be calculated from using molar extinction coeffecient for NADH at 340 nm, 6250M^−1cm^−1).
Data was analyzed using the equation: Z′=1−[3*(σ++σ−)/|μ+−μ−|], where μ denotes the mean and σ the standard deviation. The subscript designates positive or negative controls. The Z′ score for a robust screening assay should be ≧0.50. The typical threshold=μ+−3*σ+. Any value that falls below the threshold was designated a “hit.”
The dose response was measured using the equation: y=min+{(max−min)/1+10^[compound]-logIC50)}, where y is the observed initial slope, max is the slope in the absence of inhibitor, min is the slope at infinite inhibitor, and the IC50 is the [compound] that corresponds to ½ the total observed amplitude (Amplitude=max−min). The IC50 is related to the Ki by the following equation: IC50=Ki(1+[ATP]/Km).
To measure modulation, activation, or inhibition of FLT3KD, a test compound was added to the assay at a range of concentrations. Inhibitors may inhibit FLT3KD activity at an IC50 in the micromolar range, the nanomolar range, and, for example, in the subnanomolar range. […]

A word on the IC50: it is the concentration needed to halve the response being measured.

`O=C(Nc1nc2[nH]nc(-c3cccc(C(F)(F)F)c3)c2s1)c1ccccc1`: the IC50 (Table 5) was in the range of 1000 to 10000 nM.
`O=C(Nc1nc2[nH]nc(-c3ccncc3)c2s1)c1ccccc1` showed an IC50 (Table 6) of less than 100 nM.
For the setting “Table 6”, `O=C(Nc1nc2[nH]nc(-c3ccccc3)c2s1)c1ccno1` showed an IC50 of less than 100 nM.
Still for that read-out and setting: next, `CC(C)(C)c1n[nH]c2nc(NC(=O)c3ccccc3)sc12`: 100 to 1000 nM.
On the same count and under the same terms, then `O=C(Nc1nc2[nH]nc(-c3ccco3)c2s1)c1ccccc1`, with 100 to 1000 nM.
Regarding `O=C(Nc1nc2[nH]nc(-c3ccccn3)c2s1)c1ccco1`, the IC50 (Table 6) was in the range of 100 to 1000 nM.
The same measure, in the same setting: next, `CC(C)(C)c1n[nH]c2nc(NC(=O)c3ccncc3)sc12`: more than 1000 nM.
Under “Table 5”, `O=C(Nc1nc2[nH]nc(-c3ccc(Cl)cc3)c2s1)c1ccccc1` [drawing 246] yielded an IC50 of less than 1000 nM.
Turning to `O=C(Nc1nc2[nH]nc(-c3ccccc3)c2s1)c1ccncc1` [drawing 248], the IC50 (Table 5) was less than 1000 nM.
`O=C(Nc1nc2[nH]nc(-c3ccccc3)c2s1)c1cccc(Br)c1` [drawing 249] gave a 50% inhibitory concentration (IC50) (Table 5) of 1000 to 10000 nM.
Still for that read-out and setting: next, `COCCOCC(=O)Nc1nc2[nH]nc(-c3ccccc3)c2s1` [drawing 250]: 1000 to 10000 nM.
The same measure, in the same setting: then `CC(=O)N1CCC(C(=O)Nc2nc3[nH]nc(-c4ccccc4)c3s2)CC1` [drawing 251], with 1000 to 10000 nM.
In the case of `O=C(Nc1nc2[nH]nc(-c3ccc(O)cc3)c2s1)C1CC1` [drawing 254], the IC50 (Table 6) was less than 100 nM.
The same measure, in the same setting: next, `O=C(Nc1nc2[nH]nc(-c3ccccc3)c2s1)c1cccc(Br)c1` [drawing 259]: more than 1000 nM.

The values above are taken from patent US7473783B2, “Bicyclic pyrazolo protein kinase modulators” (SGX Pharmaceuticals, Inc., priority 2003, dated 2009).
